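How tested: cells in 96-well plates exposed to compound for 48 hours at five concentrations. The concentration for 50% growth inhibition is given as GI50.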 Calls of active or inactive are those of the source. No stated cut-off is given here; in the data, active = GI50 up to about 1.1 µM and inactive = higher.

The results in this text go back to ChEMBL document CHEMBL1201862, “PubChem BioAssay data set” (2004).

Among the test systems are A498; ACHN; CAKI-1; HCC 2998; HOP-62; HT-29; MOLT-4; Malme-3M; NCI-H522; OVCAR-3; OVCAR-4; OVCAR-5; SF-295; SF-539; SK-OV-3; SR; SW-620; U-251; MCF7.
What all share (assay): inhibition of tumour cell growth, NCI panel, 48 h

As for `O=C(/C=C1\Nc2ccccc2C(=O)N1c1ccccc1Cl)c1ccccc1`, the GI50 was > 100 µM (inactive) in the assay on A498; > 100 µM (inactive) with ACHN; > 100 µM (inactive) in the assay on CAKI-1; > 100 µM (inactive) in the assay on HCC 2998; > 100 µM (inactive) in the assay with HOP-62; 64.7 µM (inactive) in the assay on HT-29. In addition, the GI50 with MOLT-4 was 76.4 µM (inactive); in the assay on Malme-3M, > 100 µM (inactive); in the assay on NCI-H522, > 100 µM (inactive); in the assay on OVCAR-3, 88.9 µM (inactive); in the assay on OVCAR-4, 67.5 µM (inactive); with OVCAR-5, > 100 µM (inactive). Further, the GI50 with SF-295, in the assay on SF-539, with SK-OV-3, with SR, in the assay on SW-620 and with U-251 was > 100 µM (inactive) throughout.

As for `CC1CCC2(OC1)OC1CC3C4CCC5CC(O)CCC5(C)C4CC(=O)OC3(C)C1C2C` (stereo not given), the GI50 in the assay on A498, with ACHN, with CAKI-1, with HCC 2998, in the assay on HOP-62 and with HT-29 was > 100 µM (inactive) in each case. The GI50 with MOLT-4, with Malme-3M, in the assay with NCI-H522, in the assay on OVCAR-3, in the assay on OVCAR-4 and with OVCAR-5 was > 100 µM (inactive) in each case. Also, the GI50 with SF-295, in the assay on SF-539, in the assay with SK-OV-3, in the assay on SR, in the assay on SW-620 and with U-251 was > 100 µM (inactive) in each case.

Take `COc1ccc(N2C(=O)CC(=O)N(C(=O)COc3ccc(OCC(=O)N4C(=O)CC(=O)N(c5ccc(OC)cc5)C4=S)cc3)C2=S)cc1`: the GI50 in the assay on A498 was 61.7 µM (inactive); with ACHN, 42.1 µM (inactive); in the assay on CAKI-1, 0.718 µM (active); with HCC 2998, 32.3 µM (inactive); with HT-29, 47.8 µM (inactive); in the assay with MCF7, 31.1 µM (inactive). Further, the GI50 was 32 µM (inactive) in the assay on MOLT-4; 68.2 µM (inactive) in the assay with Malme-3M; 35.5 µM (inactive) with NCI-H522; 27 µM (inactive) in the assay on OVCAR-4; > 100 µM (inactive) in the assay with OVCAR-5; 36.8 µM (inactive) in the assay with SF-295. In addition, the GI50 with SK-OV-3 is 29.2 µM (inactive); with SW-620, 40.1 µM (inactive); in the assay on U-251 it was 37.1 µM (inactive).

As for `COc1cc(C(O)C(=O)c2nc3ccc([N+](=O)[O-])cc3nc2O)ccc1O` (stereo not given), the GI50 was 34.6 µM (inactive) with A498; 54.2 µM (inactive) in the assay on ACHN; > 100 µM (inactive) with CAKI-1; 74.1 µM (inactive) in the assay on HCC 2998; > 100 µM (inactive) in the assay on HOP-62; > 100 µM (inactive) with HT-29. For the same compound, the GI50 with MOLT-4 is > 100 µM (inactive); in the assay with Malme-3M, > 100 µM (inactive); in the assay with NCI-H522, 18.8 µM (inactive); in the assay on OVCAR-3 it was > 100 µM (inactive); in the assay on OVCAR-4, > 100 µM (inactive); in the assay on OVCAR-5, > 100 µM (inactive). Further, the GI50 was > 100 µM (inactive) with SF-295; 58.1 µM (inactive) in the assay with SF-539; > 100 µM (inactive) in the assay on SK-OV-3; > 100 µM (inactive) in the assay on SR; > 100 µM (inactive) in the assay with SW-620; > 100 µM (inactive) with U-251.

`Cc1ccc(C)c(NC(=O)/C(=N\NC(N)=S)C(C#N)c2ccccc2)c1` (stereo not given): the GI50 in the assay with A498, in the assay on ACHN, with CAKI-1, in the assay on HCC 2998, in the assay with HOP-62 and in the assay on HT-29 was > 100 µM (inactive) in each case. Besides, the GI50 in the assay with MOLT-4, with Malme-3M, in the assay on NCI-H522, with OVCAR-3, with OVCAR-4 and in the assay with OVCAR-5 was > 100 µM (inactive) throughout. The GI50 with SF-295, in the assay on SF-539, with SK-OV-3, in the assay on SR, in the assay with SW-620 and in the assay with U-251 was > 100 µM (inactive) throughout.

Take `COc1cccc(NC(=O)C(C)(C)C)c1C=O`: the GI50 was > 100 µM (inactive) in the assay on A498; 56.2 µM (inactive) in the assay with ACHN; 56.6 µM (inactive) in the assay on CAKI-1; 92 µM (inactive) in the assay on HCC 2998; > 100 µM (inactive) in the assay with HOP-62; 40.7 µM (inactive) with HT-29. The GI50 in the assay on MOLT-4 was 31 µM (inactive); in the assay with Malme-3M, > 100 µM (inactive); in the assay with NCI-H522, 55.2 µM (inactive); in the assay with OVCAR-3, 37 µM (inactive); in the assay with OVCAR-4, 46.1 µM (inactive); in the assay with OVCAR-5 it was 62.5 µM (inactive). Further, the GI50 in the assay on SF-295 is 67.6 µM (inactive); in the assay with SF-539 it was 68.4 µM (inactive); with SK-OV-3 it was 82.8 µM (inactive); in the assay on SR, 26.5 µM (inactive); with SW-620, 34.7 µM (inactive); with U-251 it was 36.6 µM (inactive).

As to `O=C(Nc1cc(Cl)c(Cl)cc1Cl)C(=O)C1C(=O)NC(=S)NC1=O`, the GI50 with A498, with ACHN, with CAKI-1, in the assay with HCC 2998, with HOP-62 and in the assay with HT-29 was > 100 µM (inactive) in each case. Besides, the GI50 in the assay with MOLT-4, in the assay with Malme-3M, with NCI-H522, in the assay on OVCAR-4, in the assay on OVCAR-5 and in the assay on SF-295 was > 100 µM (inactive) each time. Besides, the GI50 in the assay on SF-539, with SK-OV-3, in the assay on SR, in the assay on SW-620 and in the assay with U-251 was > 100 µM (inactive) each time.

With `COC(=O)C12C3C4C1C1C2C3C41C(=O)N(C(C)C)C(C)C` (stereo not given), the GI50 with A498, in the assay on ACHN, in the assay with HCC 2998, with HOP-62, with HT-29 and in the assay on MOLT-4 was > 100 µM (inactive) in each case. The GI50 with Malme-3M, with NCI-H522, in the assay with OVCAR-3, with OVCAR-4, in the assay on OVCAR-5 and in the assay on SF-295 was > 100 µM (inactive) throughout. For the same compound, the GI50 in the assay on SF-539, with SK-OV-3, in the assay on SR, in the assay on SW-620 and in the assay with U-251 was > 100 µM (inactive) each time.

Turning to `CC(C)=C/C=C1/CS(=O)(=O)C=C1C`, the GI50 with A498, in the assay on ACHN, with CAKI-1, in the assay on HCC 2998, in the assay with HOP-62 and with HT-29 was > 100 µM (inactive) each time. Moreover, the GI50 in the assay with MCF7, in the assay with MOLT-4, in the assay on Malme-3M, in the assay on NCI-H522, in the assay with OVCAR-3 and in the assay on OVCAR-5 was > 100 µM (inactive) each time. In addition, the GI50 in the assay with SF-295, in the assay on SF-539, in the assay on SK-OV-3, in the assay on SW-620 and with U-251 was > 100 µM (inactive) each time.

In the case of `O=[N+]([O-])c1cc(C(F)(F)F)cc([N+](=O)[O-])c1CCl`, the GI50 was 18.6 µM (inactive) in the assay with A498; 14.5 µM (inactive) in the assay with ACHN; 3.15 µM (inactive) in the assay with CAKI-1; 16.1 µM (inactive) with HOP-62; 2.14 µM (inactive) in the assay on HT-29; 0.248 µM (active) in the assay on MOLT-4. For the same compound, the GI50 with Malme-3M was 3.23 µM (inactive); with NCI-H522 it was 0.328 µM (active); in the assay on OVCAR-3 it was 5.24 µM (inactive); with OVCAR-4 it was 1.63 µM (inactive); in the assay with OVCAR-5, 5.3 µM (inactive); in the assay on SF-295, 5.78 µM (inactive). Moreover, the GI50 is 4.81 µM (inactive) in the assay on SF-539; 5.73 µM (inactive) in the assay on SK-OV-3; 0.388 µM (active) with SR; 0.429 µM (active) in the assay on SW-620; 3.61 µM (inactive) in the assay with U-251.

For the compound `O=C(CC(C(=O)c1ccsc1)c1cccs1)c1cccs1` (stereo not given), the GI50 was 66.4 µM (inactive) with A498; 99.1 µM (inactive) with ACHN; > 100 µM (inactive) in the assay on HCC 2998; > 100 µM (inactive) with HOP-62; 82.2 µM (inactive) in the assay with HT-29; 33 µM (inactive) in the assay with MOLT-4. For the same compound, the GI50 was > 100 µM (inactive) with Malme-3M; 33.4 µM (inactive) in the assay on NCI-H522; 38.7 µM (inactive) in the assay with OVCAR-3; 48.6 µM (inactive) with OVCAR-4; > 100 µM (inactive) with OVCAR-5; 37.5 µM (inactive) with SF-295. Also, the GI50 in the assay with SF-539 was > 100 µM (inactive); with SK-OV-3, > 100 µM (inactive); in the assay on SR, 29.6 µM (inactive); with SW-620, > 100 µM (inactive); in the assay with U-251, > 100 µM (inactive).
